We go through 1 molecule from ChEMBL document CHEMBL5512623, “Discovery of the novel and potent histamine H1 receptor antagonists for treatment of allergic diseases” (Eur J Med Chem, 2024).

A short description of data set [1]: Subacute toxicity in Sprague-Dawley rat assessed as effect on neutrophil count at 140 mg/kg, IG administered once a day for 14 days. In kind it is organism-based. The note with it: in vivo, po, 336 h, time 14 day.
Data set [2] in a line: Subacute toxicity in Sprague-Dawley rat assessed as wheezing at 140 mg/kg, IG administered once a day for 14 days. To be noted: in vivo, po, 336 h, time 14 day. In kind it is organism-based.
A short description of data set [3]: Plasma protein binding in rat assessed as binding rate at 250 ng/ml prewarmed for 30 mins by LC-MS/MS analysis. In kind it is ADME, cell-free. To be noted: read-out: PPB (converted).
A short description of data set [4]: Cmax in male Sprague-Dawley rat plasma at 10 mg/kg, IG administered as single dose. Format: ADME, organism-based. To be noted: po.
Data set [5] is described as follows: Half life in male Sprague-Dawley rat at 4 mg/kg, iv administered via tail vein and measured upto 24 hrs by LC-MS/MS analysis. Format: ADME, organism-based. The note with it: in vivo.
Data set [6] is described as follows: Apparent permeability across basolateral to apical side in human Caco-2 cells at 5 uM measured at 60 mins. Format: ADME, cell-based. For orientation: Caco-2 cells form a polarised layer with tight junctions and transporters.
The nature of data set [7]: Metabolic stability in human liver microsomes at 1 uM measured upto 120 mins by LC-MS/MS analysis. In kind it is ADME, Microsome. To be noted: 2 h. For orientation: Microsomes from liver hold many membrane-bound enzymes, among them those of drug oxidation.
A short description of data set [8]: Subacute toxicity in Sprague-Dawley rat assessed as increase in spleen to brain ratio at 140 mg/kg, IG administered once a day for 14 days. In kind it is organism-based. The note with it: in vivo, po, 336 h, time 14 day.
Data set [9] is described as follows: Ratio of Cmax in male Sprague-Dawley rat brain to plasma at 10 mg/kg, IG administered as single dose. Format: ADME, organism-based. To be noted: brain and plasma, po, read-out: BPR.
A short description of data set [10]: Subacute toxicity in Sprague-Dawley rat assessed as organ abnormalities at 50 mg/kg, IG administered once a day for 14 days. In kind it is organism-based. The note with it: in vivo, po, 336 h, time 14 day.
A short description of data set [11]: Volume of distribution in male Sprague-Dawley rat at 25 mg/kg, po measured upto 24 hrs by LC-MS/MS analysis. Format: ADME, organism-based. The note with it: in vivo.
Data set [12] can be described thus: Subacute toxicity in Sprague-Dawley rat assessed as effect on lymphocyte count at 140 mg/kg, IG administered once a day for 14 days. In kind it is organism-based. To be noted: in vivo, po, 336 h, time 14 day.
The nature of data set [13]: Ratio of Cmax in female Sprague-Dawley rat brain to plasma at 10 mg/kg, IG administered as single dose. To be noted: brain and plasma, po, read-out: BPR. In kind it is ADME, organism-based.
Data set [14] can be described thus: Plasma protein binding in human assessed as binding rate at 1200 ng/ml prewarmed for 30 mins by LC-MS/MS analysis. The note with it: read-out: PPB (converted). In kind it is ADME, cell-free.
Data set [15] in a line: Subacute toxicity in Sprague-Dawley rat assessed as increase in aspartate aminotransferase level in serum at 140 mg/kg, IG administered once a day for 14 days. Format: organism-based. The note with it: in vivo, po, 336 h, time 14 day.
Data set [16] in a line: Subacute toxicity in Sprague-Dawley rat assessed as animal death at 50 to 140 mg/kg, IG administered once a day for 14 days. The note with it: in vivo, po, 336 h, dose 50-140 mg/kg, time 14 day. Format: organism-based.

Consider `CC(C)(C(=O)O)c1cccc(CCCN2CCC(=C3c4ccc(Cl)cc4CCc4cccnc43)CC2)c1`, for which the Activity result is “Non-Toxic” in [1]; “Toxic” in [2]; “Toxic” in data set [8]; “Non-Toxic” in [10]; “Non-Toxic” in [12]; “Toxic” in data set [15]. Also, the Activity entry in data set [16] was “Non-Toxic”. Further, the fraction unbound at 0.5 h, 250 ng/ml in data set [3] was 0.346. Further, the Cmax (as a rule, the maximum level reached in the sampled fluid or tissue) in [4] is 239 ng/g. Also, the half-life (commonly how long it takes for the measured level to halve) in data set [5] is 39.2 min. Further, the Papp B→A (in general, the apparent permeability from the basolateral to the apical side of a cell layer) at 1 h, 5 µM in data set [6] was 6.06 ×10⁻⁶ cm/s. The Stability entry in data set [7] is reported as “Stable”. Also, the Kp in data set [9] and in data set [13] was 0.066 throughout. Besides, the Vd in data set [11] came out at 21.26 L/kg. In data set [14], the fraction unbound at 0.5 h, 1200 ng/ml is 0.284.
